Laboratory results taken from ChEMBL document CHEMBL5518235, “Identification of Novel Series of Potent and Selective Relaxin Family Peptide Receptor 1 (RXFP1) Agonists” (J Med Chem, 2024).
pEC50: −log10 of the molar value. Calls of active or inactive are those of the source. No cut-off for these calls is given here.

Tests used:
[1] = molecular target: T1, Relaxin receptor 1 (Homo sapiens) (UniProt Q9HBX9); assay: (§1) Agonist activity at human RXFP1 expressed in T-Rex-CHO-K1 cells assessed as stimulation of cAMP production incubated for 45 mins by HTRF assay; format: functional, cell-based
T1 sequence (whole entry): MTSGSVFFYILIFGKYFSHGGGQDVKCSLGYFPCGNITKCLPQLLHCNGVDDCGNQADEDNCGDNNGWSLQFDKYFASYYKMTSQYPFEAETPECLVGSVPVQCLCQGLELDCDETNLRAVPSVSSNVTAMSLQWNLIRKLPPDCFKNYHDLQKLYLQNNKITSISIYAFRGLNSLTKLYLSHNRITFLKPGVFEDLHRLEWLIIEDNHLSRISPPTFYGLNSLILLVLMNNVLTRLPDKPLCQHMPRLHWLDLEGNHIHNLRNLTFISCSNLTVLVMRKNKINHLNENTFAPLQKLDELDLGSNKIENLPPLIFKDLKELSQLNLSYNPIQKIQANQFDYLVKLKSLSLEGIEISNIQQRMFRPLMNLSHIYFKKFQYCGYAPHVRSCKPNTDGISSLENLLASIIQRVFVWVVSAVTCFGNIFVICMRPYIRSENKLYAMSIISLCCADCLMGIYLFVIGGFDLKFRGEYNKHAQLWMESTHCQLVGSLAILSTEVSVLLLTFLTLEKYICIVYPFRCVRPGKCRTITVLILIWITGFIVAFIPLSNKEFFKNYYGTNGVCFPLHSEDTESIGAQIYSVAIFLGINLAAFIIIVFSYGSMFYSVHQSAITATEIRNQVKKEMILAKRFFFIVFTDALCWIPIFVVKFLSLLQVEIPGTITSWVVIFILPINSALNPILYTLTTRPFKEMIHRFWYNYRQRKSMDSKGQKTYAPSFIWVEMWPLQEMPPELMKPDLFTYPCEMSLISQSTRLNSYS

[2] = Metabolic stability in human liver microsomes assessed as unbound intrinsic clearance at 1 uM incubated for 30 mins in presence of NADPH by LC-MS/MS analysis; format: ADME, Microsome; settings: 0.5 h
[3] = Metabolic stability in human liver microsomes assessed as intrinsic clearance at 1 uM incubated for 30 mins in presence of NADPH by LC-MS/MS analysis; format: ADME, Microsome; settings: for microsomal CLint at 1 µM: liver microsomes, read-out: CLH
[4] = Lipophilicity, logD of the compound in 1-octanol and phosphate buffer at pH 7.4 incubated for 3 hrs by shake flask method based LC/MS/MS analysis; format: physicochemical; settings: for logD at 3 h: 1-octanol/phosphate buffer, pH 7.4
[5] = Metabolic stability in cryopreserved human hepatocytes assessed as intrinsic clearance measured per 10^6 cells at 1 uM after 120 mins by LC-MS/MS analysis; format: ADME, cell-based, Hepatocyte; settings: cryopreserved hepatocytes, read-out: CLH
[6] = Metabolic stability in cryopreserved human hepatocytes assessed as unbound intrinsic clearance measured per 10^6 cells at 1 uM measured after 120 mins by LC-MS/MS analysis; format: ADME, cell-based, Hepatocyte; settings: 2 h
[7] = molecular target: T1, Relaxin receptor 1 (Homo sapiens); assay: Agonist activity at human RXFP1 expressed in T-Rex-CHO-K1 cells assessed as stimulation of cAMP production by measuring maximal efficacy at 50 uM incubated for 45 mins by HTRF assay relative to control; format: functional, cell-based; settings: filed as agonist
[8] = molecular target: T2, Relaxin receptor 1 (Homo sapiens, UniProt Q9HBX9); assay: as §1; format: functional, cell-based
T2 sequence (Q9HBX9 whole entry): T1 sequence (whole entry)

| SMILES | Activity [1] | CL free [2] | microsomal CLint at 1 µM [3] [µL/min/mg] | logD at 3 h [4] | hepatocyte CLint at 1 µM [5] [µL/min/1e6 cells] | CL free [6] | Emax [7] [%] | pEC50 [8] | CLH ([3]; microsomes, 0.5 h, 1 µM) [µL/min/mg] | logD ([4]; octanol/water, pH 7.4, 3 h, 3 h) |
| --- | --- | --- | --- | --- | --- | --- | --- | --- | --- | --- |
| COc1ccccc1C(=O)N[C@H]1CN(C)C[C@H]1C(=O)Nc1cccc(S(=O)(=O)C(F)(F)F)c1 (racemic) | inactive | 0.98 10^3uL/min/mg | 173 | 3.5 | – | – | – | – | – | – |
| COc1cc(F)c(-c2ccc(C(=O)O)cc2)cc1C(=O)N[C@@H]1[C@H](C(=O)Nc2cccc(S(=O)(=O)C(F)(F)F)c2)[C@H]2C=C[C@@H]1C2 | inactive | 150 µL/min/mg | 9.9 | 3.8 | 9.2 | 484 µL/min | – | – | – | – |
| COc1ccccc1C(=O)N[C@H]1[C@@H](C(=O)Nc2cccc(S(=O)(=O)C(F)(F)F)c2)[C@@H]2C=C[C@H]1C2 | – | > 29 10^3uL/min/mg | 44 | 4.4 | 8.9 | 1.8 10^3uL/min | 108 | 5.60 | – | – |
| COc1cc(F)c(-c2ccc(C(=O)O)cc2)cc1C(=O)Nc1ccccc1C(=O)Nc1cccc(S(=O)(=O)C(F)(F)F)c1 | – | < 333 µL/min/mg | < 3 | > 3.9 | 11 | 3.9 10^3uL/min | 115 | 6.70 | – | – |
| COc1cc(F)c(-c2ccc(S(N)(=O)=O)cc2)cc1C(=O)N[C@@H]1[C@H]2CC[C@H](C2)[C@@H]1C(=O)Nc1cccc(S(=O)(=O)C(F)(F)F)c1 | – | 92000 µL/min/mg | 74 | > 3.7 | 18 | 7.8 10^3uL/min | 109 | 6.60 | – | – |
| COc1ccccc1C(=O)N[C@@H]1CCCC[C@@H]1C(=O)Nc1cccc(S(=O)(=O)C(F)(F)F)c1 (racemic) | inactive | 6.3 10^3uL/min/mg | 242 | 4.4 | – | – | – | – | – | – |
| COc1ccccc1C(=O)Nc1ccccc1C(=O)Nc1cccc(S(=O)(=O)C(F)(F)F)c1 | – | 3.7 10^3uL/min/mg | 12 | > 4 | 6.7 | 0.96 10^3uL/min | 153 | 5.50 | – | – |
| COc1cc(F)c(-c2ccc(C(=O)O)cc2)cc1C(=O)N[C@@H]1[C@H]2CC[C@H](C2)[C@@H]1C(=O)Nc1cccc(S(=O)(=O)C(F)(F)F)c1 | – | 314 µL/min/mg | 16 | 3.6 | 32 | 1.3 10^3uL/min | 103 | 6.80 | – | – |
| COc1cc(F)c(-c2ccc(C(=O)O)cc2)cc1C(=O)N[C@H]1[C@@H](C(=O)Nc2cccc(S(=O)(=O)C(F)(F)F)c2)[C@@H]2C=C[C@H]1C2 | – | 100 µL/min/mg | – | – | 11.7 | 334 µL/min | – | 6.80 | 7.2 | 3.8 |
| COc1cc(F)c(-c2ccc(CC(=O)O)cc2)cc1C(=O)N[C@H]1[C@@H](C(=O)Nc2cccc(S(=O)(=O)C(F)(F)F)c2)[C@@H]2C=C[C@H]1C2 (racemic) | – | 111 µL/min/mg | 4.6 | 3.2 | 6.5 | 295 µL/min | 110 | 7.10 | – | – |
| COc1cc(F)c(-c2cccc(C(=O)O)c2)cc1C(=O)N[C@H]1[C@@H](C(=O)Nc2cccc(S(=O)(=O)C(F)(F)F)c2)[C@@H]2C=C[C@H]1C2 | – | < 64 µL/min/mg | < 3 | 3.7 | 5.4 | 277 µL/min | 103 | 6.80 | – | – |
| COc1cnc(-c2ccc(C(=O)O)cc2)cc1C(=O)N[C@H]1[C@@H](C(=O)Nc2cccc(S(=O)(=O)C(F)(F)F)c2)[C@@H]2C=C[C@H]1C2 (racemic) | – | 19 µL/min/mg | 7 | 2.3 | – | – | 117 | 5.40 | – | – |
